As usually defined, the IC50 is the concentration at which inhibition is half-maximal.

Chain of bovine cardiac myosin (Q9BE39 whole entry): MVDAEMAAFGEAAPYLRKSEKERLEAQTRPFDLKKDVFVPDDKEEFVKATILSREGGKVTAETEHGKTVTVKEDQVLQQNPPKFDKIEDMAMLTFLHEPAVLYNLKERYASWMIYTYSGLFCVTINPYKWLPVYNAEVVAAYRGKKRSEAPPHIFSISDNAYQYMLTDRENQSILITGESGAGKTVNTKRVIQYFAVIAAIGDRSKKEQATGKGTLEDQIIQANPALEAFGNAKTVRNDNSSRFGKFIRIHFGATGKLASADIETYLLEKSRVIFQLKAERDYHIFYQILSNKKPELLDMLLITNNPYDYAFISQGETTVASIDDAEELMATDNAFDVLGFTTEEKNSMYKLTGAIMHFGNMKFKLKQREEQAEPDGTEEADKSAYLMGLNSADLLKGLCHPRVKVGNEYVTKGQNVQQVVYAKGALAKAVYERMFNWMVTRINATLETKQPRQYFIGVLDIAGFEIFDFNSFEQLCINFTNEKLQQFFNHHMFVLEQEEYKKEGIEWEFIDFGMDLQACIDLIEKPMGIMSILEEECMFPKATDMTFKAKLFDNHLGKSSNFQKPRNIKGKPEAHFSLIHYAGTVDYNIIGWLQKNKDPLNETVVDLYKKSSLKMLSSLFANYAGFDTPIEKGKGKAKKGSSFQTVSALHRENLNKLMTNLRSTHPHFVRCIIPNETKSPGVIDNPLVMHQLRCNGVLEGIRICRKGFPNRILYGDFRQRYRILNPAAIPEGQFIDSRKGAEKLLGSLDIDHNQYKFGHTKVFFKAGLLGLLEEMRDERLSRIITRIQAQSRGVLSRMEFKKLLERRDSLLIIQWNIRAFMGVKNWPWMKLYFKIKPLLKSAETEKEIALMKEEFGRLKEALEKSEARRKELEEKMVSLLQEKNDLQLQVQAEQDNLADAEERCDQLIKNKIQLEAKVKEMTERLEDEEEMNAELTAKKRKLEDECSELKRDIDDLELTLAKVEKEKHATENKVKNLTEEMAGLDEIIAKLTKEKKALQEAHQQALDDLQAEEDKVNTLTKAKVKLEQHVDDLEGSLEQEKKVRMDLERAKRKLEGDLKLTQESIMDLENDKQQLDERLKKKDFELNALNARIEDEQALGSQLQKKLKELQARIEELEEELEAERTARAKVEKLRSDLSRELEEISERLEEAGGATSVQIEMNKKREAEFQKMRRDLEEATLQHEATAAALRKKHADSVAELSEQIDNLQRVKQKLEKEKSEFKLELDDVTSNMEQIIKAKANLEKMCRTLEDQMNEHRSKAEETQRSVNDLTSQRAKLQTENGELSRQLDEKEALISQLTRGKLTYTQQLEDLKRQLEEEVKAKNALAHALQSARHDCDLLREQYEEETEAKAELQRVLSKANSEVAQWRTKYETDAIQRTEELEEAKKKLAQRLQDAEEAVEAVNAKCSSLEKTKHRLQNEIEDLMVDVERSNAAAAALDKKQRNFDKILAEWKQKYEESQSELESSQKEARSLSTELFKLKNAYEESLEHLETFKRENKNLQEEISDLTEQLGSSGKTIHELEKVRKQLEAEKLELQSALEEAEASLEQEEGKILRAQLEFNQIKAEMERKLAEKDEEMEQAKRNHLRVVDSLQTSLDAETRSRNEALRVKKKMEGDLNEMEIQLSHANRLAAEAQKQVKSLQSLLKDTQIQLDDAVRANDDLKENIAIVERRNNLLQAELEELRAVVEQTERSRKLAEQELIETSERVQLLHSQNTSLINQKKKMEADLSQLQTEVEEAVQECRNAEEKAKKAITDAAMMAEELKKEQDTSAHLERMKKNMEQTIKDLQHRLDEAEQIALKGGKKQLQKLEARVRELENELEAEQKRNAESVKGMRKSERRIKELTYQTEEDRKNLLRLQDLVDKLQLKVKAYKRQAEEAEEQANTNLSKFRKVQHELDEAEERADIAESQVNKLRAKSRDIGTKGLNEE
Chain of bovine cardiac myosin (P85100 whole entry partner): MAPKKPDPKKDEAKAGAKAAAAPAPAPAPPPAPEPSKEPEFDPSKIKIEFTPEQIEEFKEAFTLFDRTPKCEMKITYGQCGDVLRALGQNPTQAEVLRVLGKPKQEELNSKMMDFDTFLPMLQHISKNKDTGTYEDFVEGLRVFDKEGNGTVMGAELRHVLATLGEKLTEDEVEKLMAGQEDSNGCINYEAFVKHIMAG
Chain of bovine cardiac myosin (Q3SZE5 whole entry partner): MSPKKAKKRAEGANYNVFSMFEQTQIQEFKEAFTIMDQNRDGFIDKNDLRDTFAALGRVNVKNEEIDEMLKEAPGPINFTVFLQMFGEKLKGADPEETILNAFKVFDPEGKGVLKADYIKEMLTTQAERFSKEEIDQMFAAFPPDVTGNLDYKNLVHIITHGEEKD

The target of this assay is bovine cardiac myosin (Bos taurus (Bovine), UniProt Q9BE39). As to the kind of experiment: Myosin inhibitory potency: PK/LDH-coupled ATPase assay on bovine skinned cardiac myofibrils. The conditions noted are these: pCa=6.25, 50 μM ATP, 25° C., read-out: myosin inhibition activity IC50. It is filed as biochemical. As for the experimental part:
The average rates of ATPase inhibition, and the IC50 values are determined by Victor Nivo multimode plate reader (PerkinElmer, USA).
As to the assays background, a biochemical assay couples the ATPase activity of bovine cardiac myosin to an enzymatic coupling system consisting of pyruvate kinase and lactate dehydrogenase (PK/LDH) and monitoring the absorbance decrease of NADH (at 340 nm) as a function of time to measure the inhibitory ability of small molecule agents. In the assay, PK converts ADP (Adenosine diphosphate) to ATP (adenosine triphosphate) by converting PEP (phosphoenolpyruvate) to pyruvate. Pyruvate is then converted to lactate by LDH by converting NADH (nicotinamide adenine dinucleotide) to NAD (oxidized nicotinamide adenine dinucleotide).
In our experiments, bovine skinned cardiac myofibrils were isolated from the frozen bovine left ventricle as myosin's source in the ATPase assay. The calcium concentration that achieves a 50% (pCa50 or pCa=6.25) activation of the myofibril system was chosen as the final condition for assessing the activation activity according to the literature (DOI: 10.1074/jbc.M117.776815). Myofibrils ATPase activity was measured in a buffered solution containing 12 mM PIPES (piperazine-N, N′-bis(2-ethane sulfonic acid) and 2 mM magnesium chloride at pH 6.8 (PM12 buffer). Final assay conditions were 1 mg/mL of bovine cardiac myofibrils, 1:20 of stock PK/LDH (Sigma-Aldrich, Cat No. P0294-5X5ML), 50 μM ATP, 1 mM DTT (dithiothreitol), 0.75 mM NADH, 1.5 mM PEP at pCa50 (pCa=6.25). Compounds were dissolved in DMSO (dimethyl sulfoxide). Serial dilution of compounds was created such that the final desired concentration of compound would be achieved in a volume of 150 μL with a fixed DMSO concentration of 2% (v/v). 75 μL of a solution containing bovine cardiac myofibrils, PK/LDH, and calcium were added to a 96 well plate for a 7 point dose-response. In some circumstances, 10 point-response was used to repeat the ATPase assays on compounds of interest. Compounds were added to the myofibrils solution and incubated for 5 minutes. The enzymatic reaction was started with the addition of 75 μL of a solution containing ATP, PEP, NADH, compounds, and calcium. The ATPase activity was measured by reading absorbance at 340 nm in a PerkinElmer Victor Nivo plate reader at 25° C. in kinetic mode for 15 minutes using clear bottom plates. The slopes of the absorbance changes as a function of time for the first 10 minutes were normalized to slopes on the control wells containing all reagents, including DMSO, but without compounds. This normalized rate was then plotted as a function of small molecule concentration in GraphPad prism 9. The data were fitted to a four-parameter fit, and IC50 was calculated using Graphpad Prism 9.
Take `CC(Nc1nc(=O)n(C2CCNCC2)c(=O)[nH]1)c1cccc(C(F)(F)F)c1` (stereo not drawn) [Example 192]: the IC50 worked out at 5810 nM.
For `CC(Nc1nc(=O)n(C2CCNCC2)c(=O)[nH]1)c1ccc(C(F)(F)F)cc1` (stereo not drawn) [Example 193] the value was 5150 nM; for `Cc1ccc(C(C)Nc2nc(=O)n(C3CCNCC3)c(=O)[nH]2)cc1` (stereo not drawn) [Example 194], 4470 nM; for `C[C@H](Nc1nc(=O)n(C2CCOCC2)c(=O)[nH]1)c1cc(C(F)(F)F)cc(C(F)(F)F)c1` [Example 196], 2670 nM.
Regarding `Cc1c(-c2cccc([C@H](C)Nc3nc(=O)n(C4CCOCC4)c(=O)[nH]3)c2)cnn1C` [Example 197], the IC50 came out at 2040 nM.
For `Cc1noc(C)c1-c1cccc([C@H](C)Nc2nc(=O)n(C3CCOCC3)c(=O)[nH]2)c1` [Example 198] the value was 1210 nM; for `C[C@H](Nc1nc(=O)n(C2CCOCC2)c(=O)[nH]1)c1cccc(-n2cccn2)c1` [Example 199], 2100 nM; for `C[C@H](Nc1nc(=O)n(C2CCOCC2)c(=O)[nH]1)c1cccc(-n2ccnc2)c1` [Example 200], 1780 nM.
For `C[C@H](Nc1nc(=O)n(C2CCOCC2)c(=O)[nH]1)c1cccc(-n2cncn2)c1` [Example 201] the value was 4850 nM; for `C[C@H](Nc1nc(=O)n(C2CCOCC2)c(=O)[nH]1)c1cccc(OC(F)(F)F)c1` [Example 202], 490 nM.
The result for `Cc1nccn1-c1cccc([C@H](C)Nc2nc(=O)n(C3CCOCC3)c(=O)[nH]2)c1` [Example 203] reads 2070 nM.
Regarding `Cc1cnn(-c2cccc([C@H](C)Nc3nc(=O)n(C4CCOCC4)c(=O)[nH]3)c2)c1` [Example 204], the IC50 was found to be 5430 nM.
As for `Cc1cn(-c2cccc([C@H](C)Nc3nc(=O)n(C4CCOCC4)c(=O)[nH]3)c2)cn1` [Example 205], the IC50 is 3840 nM.
For `C[C@H](Nc1nc(=O)n(C2CCOCC2)c(=O)[nH]1)c1cccc(N2CCOCC2)c1` [Example 206] the value was 3800 nM; for `C[C@H](Nc1nc(=O)n(C2CCOCC2)c(=O)[nH]1)c1cccc(C2CCOCC2)c1` [Example 207], 1320 nM.
The result for `C[C@H](Nc1nc(=O)n(C2CCOCC2)c(=O)[nH]1)c1cccc(C2=CCOCC2)c1` [Example 208] reads 1600 nM; that for `C[C@H](Nc1nc(=O)n(C2CCOCC2)c(=O)[nH]1)c1cccc(C2CCNCC2)c1` [Example 209], 1950 nM; that for `C[C@H](Nc1nc(=O)n(C2CCOCC2)c(=O)[nH]1)c1cccc(C2=CCN(C(=O)OC(C)(C)C)CC2)c1` [Example 210], 3300 nM.
The result for `C[C@H](Nc1nc(=O)n(C2CCOCC2)c(=O)[nH]1)c1cccc(C2CCN(C(=O)OC(C)(C)C)CC2)c1` [Example 211] reads 1310 nM.
`C[C@H](Nc1nc(=O)n(C2CCOCC2)c(=O)[nH]1)c1cccc(N2CCN(C)CC2)c1` [Example 212]: the IC50 turned out to be 17700 nM.
With `CC(=O)N1CCN(c2cccc([C@H](C)Nc3nc(=O)n(C4CCOCC4)c(=O)[nH]3)c2)CC1` [Example 213], the IC50 was 7790 nM.
Consider `C[C@H](Nc1nc(=O)n(C2CCOCC2)c(=O)[nH]1)c1cccc(N2CC(C)(C)C2)c1` [Example 214], for which the IC50 is 3400 nM.
For the molecule `C[C@H](Nc1nc(=O)n(C2CCOCC2)c(=O)[nH]1)c1cccc(C2CCCCC2)c1` [Example 215], the IC50 amounted to 880 nM.
Take `C[C@H](Nc1nc(=O)n(C2CCOCC2)c(=O)[nH]1)c1cccc(N2CCCCC2)c1` [Example 216]: the IC50 is 1300 nM.
For `CC(Nc1nc(=O)n(C2CCOCC2)c(=O)[nH]1)c1cccc(-n2cccn2)c1` (stereo not drawn) [Example 217] the value was 3660 nM; for `Cc1nccn1-c1cccc(C(C)Nc2nc(=O)n(C3CCOCC3)c(=O)[nH]2)c1` (stereo not drawn) [Example 219], 3380 nM.
As to `C[C@H](Nc1nc(=O)n(C2CCOCC2)c(=O)[nH]1)c1cccc(-c2ccccc2)c1` [Example 220], the IC50 stood at 1320 nM.
For `C[C@H](Nc1nc(=O)n(C2CCOCC2)c(=O)[nH]1)c1cccc(-c2ccncc2)c1` [Example 221], the IC50 came out at 2530 nM.
Regarding `C[C@H](Nc1nc(=O)n(C2CCOCC2)c(=O)[nH]1)c1cccc(-c2cccnc2)c1` [Example 222], the IC50 came to 2050 nM.
For `C[C@H](Nc1nc(=O)n(C2CCOCC2)c(=O)[nH]1)c1cccc(-c2cncnc2)c1` [Example 223] the value was 890 nM; for `C[C@H](Nc1nc(=O)n(C2CCOCC2)c(=O)[nH]1)c1cccc(-c2ccccc2F)c1` [Example 224], 700 nM.
The result for `Cc1ccccc1-c1cccc([C@H](C)Nc2nc(=O)n(C3CCOCC3)c(=O)[nH]2)c1` [Example 225] reads 820 nM; that for `C[C@H](Nc1nc(=O)n(C2CCOCC2)c(=O)[nH]1)c1cccc(-c2ccc(F)cc2)c1` [Example 226], 1750 nM; that for `C[C@H](Nc1nc(=O)n(C2CCOCC2)c(=O)[nH]1)c1cccc(-c2cc[nH]n2)c1` [Example 227], 1670 nM.
For `C[C@H](Nc1nc(=O)n(C2CCOCC2)c(=O)[nH]1)c1cccc(-c2cn[nH]c2)c1` [Example 228] the value was 4140 nM.
On to `C[C@H](Nc1nc(=O)n(C2CCOCC2)c(=O)[nH]1)c1cccc(-c2cnn(C)c2)c1` [Example 229], for which the IC50 came to 820 nM.
For `Cc1n[nH]cc1-c1cccc([C@H](C)Nc2nc(=O)n(C3CCOCC3)c(=O)[nH]2)c1` [Example 230] the value was 5710 nM; for `C[C@H](Nc1nc(=O)n(C2CCC(O)C2)c(=O)[nH]1)C1CCCCC1` (stereo partly drawn) [Example 232], 8350 nM.
The result for `CC(C)C(=O)N1CCC(n2c(=O)nc(N[C@@H](C)C3CCCCC3)[nH]c2=O)CC1` [Example 234] reads 7080 nM; that for `C[C@H](Nc1nc(=O)n(C2CCNCC2)c(=O)[nH]1)C1CCCCC1` [Example 235], 1660 nM; that for `CC(=O)N1CCC(n2c(=O)nc(N[C@@H](C)C3CCCCC3)[nH]c2=O)CC1` [Example 236], 2650 nM.
The result for `C[C@H](Nc1nc(=O)n([C@H]2CC[C@@H](O)CC2)c(=O)[nH]1)C1CCCCC1` [Example 237] reads 4780 nM; that for `C[C@H](Nc1nc(=O)n([C@H]2CC[C@H](O)CC2)c(=O)[nH]1)C1CCCCC1` [Example 238], 4280 nM; that for `COC(=O)N1CCC(n2c(=O)nc(N[C@@H](C)c3cccc(C)c3)[nH]c2=O)CC1` [Example 242], 1230 nM.
As to `CC(=O)N1CCC(n2c(=O)nc(N[C@@H](C)c3cccc(C)c3)[nH]c2=O)CC1` [Example 243], the IC50 amounted to 880 nM.
The result for `Cc1cccc([C@H](C)Nc2nc(=O)n(C3CCN(S(C)(=O)=O)CC3)c(=O)[nH]2)c1` [Example 244] reads 1230 nM.
With `CNC(=O)N1CCC(n2c(=O)nc(N[C@@H](C)c3cccc(C)c3)[nH]c2=O)CC1` [Example 245], the IC50 is 5500 nM.
In the case of `COC(=O)c1ccc([C@H](C)Nc2nc(=O)n(C3CCOCC3)c(=O)[nH]2)cc1` [Example 247], the IC50 is 2420 nM.
On to `CC(O)c1cccc([C@H](C)Nc2nc(=O)n(C3CCOCC3)c(=O)[nH]2)c1` (stereo partly drawn) [Example 248], for which the IC50 came out at 1500 nM.
For the molecule `C[C@H](Nc1nc(=O)n(C2CCOCC2)c(=O)[nH]1)c1ccc(S(C)(=O)=O)cc1` [Example 249], the IC50 stood at 780 nM.
For `C[C@H](Nc1nc(=O)n(C2CCOCC2)c(=O)[nH]1)c1cccc(C(O)C2CC2)c1` (stereo partly drawn) [Example 250] the value was 4030 nM; for `C[C@H](Nc1nc(=O)n(C2CCOCC2)c(=O)[nH]1)c1ccc(Cl)cc1` [Example 251], 950 nM.
In the case of `O=c1nc(N[C@H](c2cccc(C3CN(CC(F)(F)F)C3)c2)C(F)F)[nH]c(=O)n1C1CCOCC1` [Example 259], the IC50 came out at 450 nM.
The result for `CC(=O)N1CC(c2cccc([C@@H](Nc3nc(=O)n(C4CCOCC4)c(=O)[nH]3)C(F)F)c2)C1` [Example 260] reads 200 nM; that for `CC(C)n1c(=O)nc(N[C@H](c2cccc(C3CN(CC(F)(F)F)C3)c2)C(F)F)[nH]c1=O` [Example 261], 760 nM.
For `CC(C)n1c(=O)nc(N[C@H](c2ccc(F)cc2F)C(F)F)[nH]c1=O` [Example 262] the value was 2960 nM; for `O=c1nc(N[C@H](c2ccc(F)cc2F)C(F)F)[nH]c(=O)n1C1CCOCC1` [Example 263], 2310 nM.

For the origin of these results see patent US20240262804A1, “NITROGEN-CONTAINING HETEROCYCLIC KETONES, PREPARATION METHODS AND MEDICINAL USES THEREOF” (Hansoh Bio LLC, priority 2021, published 2024).
